The source of these data is paper doi:10.1101/2020.10.02.321802v3 (bioRxiv, 2020).

The test system of data set [1] is P. aeruginosa PA14. Nature of the data set: MIC and IC50 measurement. It is filed as cell-based, Pseudomonas aeruginosa. The following applies: for IC50 / MIC: OD590 after 16 hours.
The test system of data set [2] is E. coli MG1655. Put plainly: Growth curves with single AMPs and combinations of AMPs. The format is cell-based, Escherichia coli. The following applies: single compound at the "full" concentration, 6 hours.
Data set [3] relates to E. coli MG1655. Put plainly: MIC and IC50 measurement. To be noted: for IC50 / MIC: OD590 after 16 hours. It is filed as cell-based, Escherichia coli.
For data set [4], the system named is E. coli ATCC 25922. Put plainly: MIC and IC50 measurement. The format is cell-based, Escherichia coli. The following applies: for IC50 / MIC: OD590 after 16 hours.
For data set [5], the system named is wild-type strain (Keio deletion library). Put plainly: MIC and IC50 on Keio collection strains. The format is cell-based, Escherichia coli.
For data set [6] the following is noted: ref Michod et al., 2009; cited from earlier work.
The test system of data set [7] is ΔrfaY deletion mutant (Keio deletion library). Nature of the data set: MIC and IC50 on Keio collection strains. It is filed as cell-based, Escherichia coli.
In data set [8] the test system is S. aureus ATCC 29213. Put plainly: Selection of resistant mutants by serial passage, MIC per passage. The format is cell-based, Staphylococcus aureus.
Data set [9] deals with ΔlpxL deletion mutant (Keio deletion library). Nature of the data set: MIC and IC50 on Keio collection strains. It is filed as cell-based, Escherichia coli.
Setting [10] is: BM2 Mg^high (BM2 with 2 mM MgSO4).
[11] abbreviates: BM2 Mg^low (BM2 with 20 μM MgSO4).
Where [12] appears, read: LB Mg^high (LB with 2 mM MgSO4).
Setting [13] is: LB containing EDTA at concentrations that do not affect bacterial proliferation.

In brackets after ≈: the same amount, converted by molar mass. Bridge positions count the residues as written; N and C are the ends. Square brackets hold non-standard residues; d marks the D form. Peptide text beside a SMILES is read from it. * marks the point of attachment. X1 = CC[C@H](C)CCCCC(=O)*; Dab = NCC[C@H](N)C(=O)O

As to `CC[C@H](C)CCCCC(=O)N[C@@H](CCN)C(=O)N[C@H](C(=O)N[C@@H](CCN)C(=O)N[C@H]1CCNC(=O)[C@H]([C@@H](C)O)NC(=O)[C@H](CCN)NC(=O)[C@H](CCN)NC(=O)[C@H](CC(C)C)NC(=O)[C@@H](Cc2ccccc2)NC(=O)[C@H](CCN)NC1=O)[C@@H](C)O` [Polymyxin B, polymyxin B] (X1-[Dab]T[Dab][Dab][Dab][dF]L[Dab][Dab]T; lactam 4-C (inferred); N-terminus assumed), the IC50 in data set [1] (setting [10]) was 0.5 mg/L; in [1] (LB), 2.1 mg/L; in data set [3] (setting [10]), 0.8 mg/L; in [3] (setting [11]), 1.0 mg/L; in data set [3] (LB, GraphPad Prism 8), 0.6 mg/L; in data set [4] (setting [12]), 2.7 mg/L. Besides, the IC50 in data set [4] (LB) was 1.8 mg/L. Further, the minimum inhibitory concentration (MIC) in [1] (setting [10]) amounted to 1 mg/L; in data set [1] (setting [11]), 4 mg/L; in [1] (setting [12]) it was 2 mg/L; in [1] (LB), 4 mg/L; in data set [3] (setting [10]) it was 2 mg/L; in [3] (setting [11]), 2 mg/L. Also, the MIC in data set [3] (setting [12]) was determined as 2 mg/L; in [3] (LB) it was 1 mg/L; in data set [4] (setting [12]) it was 4 mg/L; in [4] (LB) it was 2 mg/L. Besides, the “increase of MIC by low magnesium in BM2 medium” value in data set [1] (BM2 Mg^low vs BM2 Mg^high) is 4 fold. Also, the growth inhibition in [2] is listed as ~ 35%. Besides, the “impact of low magnesium in BM2 medium on MIC” value in data set [3] (BM2 Mg^low vs BM2 Mg^high) is on record as “no impact”. Further, the “effect of EDTA on MIC” value in [3] (setting [13]) and in [4] (setting [13]) was “less affected” throughout. In addition, the “effect of soluble LPS on efficacy (MIC)” value in data set [3] (LB containing purified E. coli LPS, averages of two independent experiments) is given as “greatly diminishes the efficacy”.

Regarding `CSCC[C@@H](NC(=O)[C@@H](Cc1c[nH]c2ccccc12)NC(=O)[C@H](NC(=O)[C@H](NC(=O)[C@@H](CC(N)=O)NC(=O)[C@@H](CC(C)C)NC(=O)[C@@H](CCCNC(=N)N)NC(=O)[C@H](NC(=O)[C@H](N)CC(=O)O)[C@H](C)O)[C@H](C)O)C(C)C)C(=O)N[C@H](Cc1c[nH]c2ccccc12)C(=O)NCC(=O)NCC(=O)N[C@H](CCCNC(=N)N)C(=O)N[C@H](CCCNC(=N)N)C(=O)N[C@H](CCCNC(=N)N)C(=O)N[C@H](CCC(N)=O)C(=O)N[C@H](CCCNC(=N)N)C(=O)N[C@H](CCCNC(=N)N)C(=O)N[C@H](CCCCN)C(=O)N[C@H](CCCCN)C(=O)N[C@H](CCCNC(=N)N)C(=O)NCC(=O)O` [TAT-RasGAP317-326] (H-[dD][dT][dR][dL][dN][dT][dV][dW][dM][dW]GG[dR][dR][dR][dQ][dR][dR][dK][dK][dR]G-OH), the IC50 in data set [5] (Strain 1) came to 4.1 µM; in data set [5] (Strain 2) it was 4.8 µM; in data set [7] (Strain 1) it was 7.1 µM; in data set [7] (Strain 2), 7.8 µM; in [1] (setting [10]) it was 10.1 µM; in data set [1] (setting [11]) it was 1.7 µM. The IC50 in [1] (setting [12]) is 20.8 µM; in data set [1] (LB) it was 7.2 µM; in data set [9] (Strain 1) it was 2 µM; in data set [9] (Strain 2), 2.2 µM; in data set [3] (setting [10]), 2 µM; in data set [3] (setting [11]), 0.3 µM. In addition, the IC50 in data set [3] (setting [12]) worked out at 16.3 µM; in data set [3] (LB, GraphPad Prism 8), 3 µM; in data set [4] (setting [12]), 52 µM; in data set [4] (LB), 5.2 µM. Besides, the MIC in [5] (Strain 1) worked out at 7.5 µM (≈ 21.1 µg/mL); in data set [5] (Strain 2), 7.5 µM (≈ 21.1 µg/mL); in data set [7] (Strain 1), 10 µM (≈ 28.1 µg/mL); in [7] (Strain 2), 10 µM (≈ 28.1 µg/mL); in data set [1] (setting [10]), 32 µM; in data set [1] (setting [11]), 4 µM. The MIC worked out at 64 µM in data set [1] (setting [12]); 32 µM in [1] (LB); 2.5 µM (≈ 7.04 µg/mL) in [9] (Strain 1); 2.5 µM (≈ 7.04 µg/mL) in [9] (Strain 2); 4 µM in data set [3] (setting [10]); 0.5 µM in [3] (setting [11]). In addition, the MIC is 32 µM in data set [3] (setting [12]), 8 µM in data set [3] (LB), 128 µM in [4] (setting [12]) and 8 µM in [4] (LB). Also, the biodistribution and clearance result in data set [6] is “poor biodistribution and rapid clearance”. Also, in [8] (S. aureus passaged in presence of peptide, rapidly increased), the MIC after selection came to 256 µM. Moreover, the “MIC of the parental strain” value in data set [8] (parental strain of S. aureus) was in the range of 64 to 128 µM.

Regarding melittin, the growth inhibition in [2] is recorded as ~ 20%.
